Patent US20240262803A1, “COMPOUNDS, COMPOSITIONS AND METHODS OF TREATING DISORDERS” (Chungdu Anticancer Bioscience Ltd, priority 2021, published 2024)
Like-named read-outs stand apart in the source and are kept apart here.

Experiments:
Format in all cases: cell-based
[1] = test system: gastric cancer cell line NCI-N87; assay: MTT assay of cellular proliferation, NCI-N87; conditions: Homo sapiens, read-out: EC50: Concentration that inhibits 50% of proliferation
Procedure: (§1) Six lung cancer cell lines (NCI-H23, NCI-H460, NCI-H596, NCI-H2170, Calu-6 and A549), two colon cancer cell lines (HCT116 and SW460), one breast cancer cell line MDA-MB-231, one gastric cancer cell line NCI-N87, one prostate cancer cell line DU145, one cervical cancer cell line Hela, and one glioblastoma cell line T98G were obtained from ATCC. The T2 HCC cell line was derived from a mouse liver cancer model initiated by a transgene of MYC (Reference). All cell lines were cultured in DMEM (Gibco, Cleveland, TN, USA) supplemented with 5% fetal bovine serum (Gibco), penicillin (100 U/mL)-streptomycin (100 μg/mL) (Gibco, Cat. No. 15140-122), 2 mM L-glutamine (Gibco, 200 mM solution, Cat. No. 25030081), and 1 mM sodium pyruvate (Gibco, 100 mM solution, Cat. No. 11360070) at 37° C. in a humidified incubator that was maintained at 5% CO2.
(§2) The MTT assay measures cellular metabolic activity as a proxy for cell viability and involves the conversion of the water-soluble yellow dye MTT [3-(4,5-dimethylthiazol-2-yl)-2,5-diphenyltetrazolium bromide] into an insoluble purple formazan by the action of mitochondrial reductase. Formazan is then solubilized and its concentration is determined by measuring the optical density (OD) value at a wavelength of 570 nm. The value is in proportional to the number of live cells with excellent linearity up to ˜10^6 cells per well. The MTT assay was used to determine the EC50 value, the concentration of a compound that leads to 50% inhibition of cellular proliferation. Briefly, cells were split when growing to the mid-Log phase. Cells in 100 μL of culture medium were seeded into each well of 96-well microplates and cultivated for 15˜24 hours to reach a confluence of 20˜30% and were then exposed to drugs at concentrations ranging from 1 nM to 10 μM. At the endpoint, 20 μL of a MTT stock solution in DMSO (5 mg/mL) was added to each well that contains […] of DMEM. The microplates were left in the cell culture incubator for 3˜4 h before subjected to solubilization and determination of formazan at A570 in a microplate reader (BioTek ELX808iu). […] Therefore, these compounds might hold a broad utility in the treatment of a large variety of human malignancies.

[2] = test system: lung cancer cell line A549; assay: MTT assay of cellular proliferation, A549; conditions: Homo sapiens, read-out: EC50: Concentration that inhibits 50% of proliferation
Procedure: as §1, §2

[3] = test system: lung cancer cell line NCI-H23; assay: MTT assay of cellular proliferation, NCI-H23; conditions: Homo sapiens, read-out: EC50: Concentration that inhibits 50% of proliferation
Procedure: as §1, §2

[4] = test system: breast cancer cell line MDA-MB-231; assay: Minimal effective concentration that elicits polyploidy, MDA-MB-231; conditions: Homo sapiens, read-out: MECP: Minimal effective concentration that elicits polyploidy
[5] = test system: SW480; assay: Minimal effective concentration that elicits polyploidy, SW480; conditions: Homo sapiens, read-out: MECP: Minimal effective concentration that elicits polyploidy
[6] = test system: lung cancer cell line NCI-H23; assay: Minimal effective concentration that elicits polyploidy, NCI-H23; conditions: Homo sapiens, read-out: MECP: Minimal effective concentration that elicits polyploidy
[7] = test system: lung cancer cell line A549; assay: Minimal effective concentration that elicits polyploidy, A549; conditions: Homo sapiens, read-out: MECP: Minimal effective concentration that elicits polyploidy
[8] = test system: colon cancer cell line SW460; assay: MTT assay of cellular proliferation, SW460; conditions: Homo sapiens, SW480; read-out: EC50: Concentration that inhibits 50% of proliferation
Procedure: as §1, §2

[9] = test system: colon cancer cell line HCT116; assay: Minimal effective concentration that elicits polyploidy, HCT116; conditions: Homo sapiens, HCT-116, read-out: MECP: Minimal effective concentration that elicits polyploidy
[10] = test system: RPEMYC^H2B-GFP cells; assay: Mechanism-informed phenotypic screening assay (mitotic arrest, polyploidy; GE IN-Cell Analyzer 2000); conditions: 20 nM to 20 μM, 24, 48 or 72 hours, read-out: Min. Effective conc. for polyploidy (≥5%)
Method in brief: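 RPEMYC^H2B-GFP cells expressing Histone 2B-EGFP were treated with compounds at 20 nM to 20 μM. Mitotic arrest and DNA content were imaged at 24, 48 or 72 h. Minimal effective concentrations eliciting polyploidy are given as letter bins.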

[11] = test system: gastric cancer cell line NCI-N87; assay: Minimal effective concentration that elicits polyploidy, NCI-N87; conditions: Homo sapiens, read-out: MECP: Minimal effective concentration that elicits polyploidy
[12] = test system: liver cancer cell line T2 HCC; assay: Minimal effective concentration that elicits polyploidy, T2 HCC; conditions: Mus musculus, read-out: MECP: Minimal effective concentration that elicits polyploidy
[13] = test system: breast cancer cell line MDA-MB-231; assay: MTT assay of cellular proliferation, MDA-MB-231; conditions: Homo sapiens, read-out: EC50: Concentration that inhibits 50% of proliferation
Procedure: as §1, §2

[14] = test system: RPEMYC^H2B-GFP cells; assay: Mechanism-informed phenotypic screening assay (mitotic arrest, polyploidy; GE IN-Cell Analyzer 2000); conditions: 20 nM to 20 μM, 24, 48 or 72 hours, read-out: Mitotic Arrest (≥5%)
[15] = test system: colon cancer cell line HCT116; assay: MTT assay of cellular proliferation, HCT116; conditions: Homo sapiens, HCT-116, read-out: EC50: Concentration that inhibits 50% of proliferation
Procedure: as §1, §2

[16] = test system: liver cancer cell line T2 HCC; assay: MTT assay of cellular proliferation, T2 HCC; conditions: Mus musculus, read-out: EC50: Concentration that inhibits 50% of proliferation
Procedure: as §1, §2

[17] = test system: cervical cancer cell line Hela; assay: MTT assay of cellular proliferation, Hela; conditions: Homo sapiens, read-out: EC50: Concentration that inhibits 50% of proliferation
Procedure: as §1, §2

[18] = test system: cervical cancer cell line Hela; assay: Minimal effective concentration that elicits polyploidy, Hela; conditions: Homo sapiens, read-out: MECP: Minimal effective concentration that elicits polyploidy

Row | EC50 [1] | EC50 [2] | EC50 [3] | EC50 [8] | EC50 [13] | EC50 [15] | EC50 [16] | EC50 [17] | SMILES | minimal effective concentration [4] | minimal effective concentration [5] | minimal effective concentration [6] | minimal effective concentration [7] | minimal effective concentration [9] | minimal effective concentration [10] | minimal effective concentration [11] | minimal effective concentration [12] | minimal effective concentration [14] | minimal effective concentration [18]
1 | 1 to 1000 nM | 1 to 1000 nM | 1 to 1000 nM | 1 to 1000 nM | 1 to 1000 nM | 1 to 1000 nM | 1 to 1000 nM | 1 to 1000 nM | CNC(=O)c1cc(OC)cc(Oc2ncccc2-c2ccnc(OC)c2)c1 [Compound 27, 3-methoxy-5-((2′-methoxy-[3,4′-bipyridin]-2-yl)oxy)-N-methylbenzamide] | 0.001 to 1 µM | 0.001 to 1 µM | 0.001 to 1 µM | 0.001 to 1 µM | 0.001 to 1 µM | 1 µM | 0.001 to 1 µM | 0.001 to 1 µM | 1 µM | 0.001 to 1 µM
2 | 1 to 1000 nM | 1 to 1000 nM | 1 to 1000 nM | 1 to 1000 nM | 1 to 1000 nM | 1 to 1000 nM | 1 to 1000 nM | 1 to 1000 nM | CCOc1cc(Oc2ncccc2-c2ccnc(OC)c2)cc(C(=O)NC)c1 [Compound 28, 3-ethoxy-5-((2′-methoxy-[3,4′-bipyridin]-2-yl)oxy)-N-methylbenzamide] | 0.001 to 1 µM | 0.001 to 1 µM | 0.001 to 1 µM | 0.001 to 1 µM | 0.001 to 1 µM | 1 µM | 0.001 to 1 µM | 0.001 to 1 µM | 1 µM | 0.001 to 1 µM
3 | 1 to 1000 nM | 1 to 1000 nM | 1 to 1000 nM | 1 to 1000 nM | 1 to 1000 nM | 1 to 1000 nM | 1 to 1000 nM | 1 to 1000 nM | COc1cc(Oc2ncccc2-c2ccnc(OC)c2)cc(C(F)(F)F)c1 [Compound 30, 2′-methoxy-2-(3-methoxy-5-(trifluoromethyl)phenoxy)-3,4′-bipyridine] | 0.001 to 1 µM | 0.001 to 1 µM | 0.001 to 1 µM | 0.001 to 1 µM | 0.001 to 1 µM | 1 µM | 0.001 to 1 µM | 0.001 to 1 µM | 1 µM | 0.001 to 1 µM
4 | 1 to 1000 nM | 1 to 1000 nM | 1 to 1000 nM | 1 to 1000 nM | 1 to 1000 nM | 1 to 1000 nM | 1 to 1000 nM | 1 to 1000 nM | COc1cc(Oc2ncccc2-c2ccnc(OC)c2)cc(-n2cccn2)c1 [Compound 31, 2′-methoxy-2-(3-methoxy-5-(1H-pyrazol-1-yl)phenoxy)-3,4′-bipyridine] | 0.001 to 1 µM | 0.001 to 1 µM | 0.001 to 1 µM | 0.001 to 1 µM | 0.001 to 1 µM | 1 µM | 0.001 to 1 µM | 0.001 to 1 µM | 1 µM | 0.001 to 1 µM
5 | 1 to 1000 nM | 1 to 1000 nM | 1 to 1000 nM | 1 to 1000 nM | 1 to 1000 nM | 1 to 1000 nM | 1 to 1000 nM | 1 to 1000 nM | COc1cc(NC(C)=O)cc(Oc2ncccc2-c2ccnc(OC)c2)c1 [Compound 34] | 0.001 to 1 µM | 0.001 to 1 µM | 0.001 to 1 µM | 0.001 to 1 µM | 0.001 to 1 µM | 1 µM | 0.001 to 1 µM | 0.001 to 1 µM | 1 µM | 0.001 to 1 µM
6 | 1 to 1000 nM | 1 to 1000 nM | 1 to 1000 nM | 1 to 1000 nM | 1 to 1000 nM | 1 to 1000 nM | 1 to 1000 nM | 1 to 1000 nM | COc1cc(OC)cc(Oc2nccnc2-c2ccnc(OC)c2)c1 [Compound 35, 2-(3,5-dimethoxyphenoxy)-3-(2-methoxypyridin-4-yl)pyrazine] | 0.001 to 1 µM | 0.001 to 1 µM | 0.001 to 1 µM | 0.001 to 1 µM | 0.001 to 1 µM | 1 µM | 0.001 to 1 µM | 0.001 to 1 µM | 1 µM | 0.001 to 1 µM
7 | 1 to 1000 nM | 1 to 1000 nM | 1 to 1000 nM | 1 to 1000 nM | 1 to 1000 nM | 1 to 1000 nM | 1 to 1000 nM | 1 to 1000 nM | CNC(=O)c1cc(OC)cc(Oc2ncccc2-c2ccnc(C)c2)c1 [Compound 36, 3-methoxy-N-methyl-5-((2′-methyl-[3,4′-bipyridin]-2-yl)oxy)benzamide] | 0.001 to 1 µM | 0.001 to 1 µM | 0.001 to 1 µM | 0.001 to 1 µM | 0.001 to 1 µM | 1 µM | 0.001 to 1 µM | 0.001 to 1 µM | 1 µM | 0.001 to 1 µM
8 | 1 to 1000 nM | 1 to 1000 nM | 1 to 1000 nM | 1 to 1000 nM | 1 to 1000 nM | 1 to 1000 nM | 1 to 1000 nM | 1 to 1000 nM | CNC(=O)c1cc(Oc2ncccc2-c2ccnc(C)c2)cc(C(F)(F)F)c1 [Compound 37, N-methyl-3-((2′-methyl-[3,4′-bipyridin]-2-yl)oxy)-5-(trifluoromethyl)benzamide] | 0.001 to 1 µM | 0.001 to 1 µM | 0.001 to 1 µM | 0.001 to 1 µM | 0.001 to 1 µM | 1 µM | 0.001 to 1 µM | 0.001 to 1 µM | 1 µM | 0.001 to 1 µM
9 | 1 to 1000 nM | 1 to 1000 nM | 1 to 1000 nM | 1 to 1000 nM | 1 to 1000 nM | 1 to 1000 nM | 1 to 1000 nM | 1 to 1000 nM | CCOc1cc(Oc2ncccc2-c2ccnc(C)c2)cc(C(=O)NC)c1 [Compound 38, 3-ethoxy-N-methyl-5-((2′-methyl-[3,4′-bipyridin]-2-yl)oxy)benzamide] | 0.001 to 1 µM | 0.001 to 1 µM | 0.001 to 1 µM | 0.001 to 1 µM | 0.001 to 1 µM | 1 µM | 0.001 to 1 µM | 0.001 to 1 µM | 1 µM | 0.001 to 1 µM
